In US10358436B2, “Kinase inhibitors and method of treating cancer” (University Health Network, priority 2010, dated 2019):

Each molecule was assayed against Aurora A (Homo sapiens (Human), UniProt O14965) (assay: Aurora A inhibition assay (Z-Lyte)).
Assay type: biochemical

Aurora A, sequence (O14965 whole entry): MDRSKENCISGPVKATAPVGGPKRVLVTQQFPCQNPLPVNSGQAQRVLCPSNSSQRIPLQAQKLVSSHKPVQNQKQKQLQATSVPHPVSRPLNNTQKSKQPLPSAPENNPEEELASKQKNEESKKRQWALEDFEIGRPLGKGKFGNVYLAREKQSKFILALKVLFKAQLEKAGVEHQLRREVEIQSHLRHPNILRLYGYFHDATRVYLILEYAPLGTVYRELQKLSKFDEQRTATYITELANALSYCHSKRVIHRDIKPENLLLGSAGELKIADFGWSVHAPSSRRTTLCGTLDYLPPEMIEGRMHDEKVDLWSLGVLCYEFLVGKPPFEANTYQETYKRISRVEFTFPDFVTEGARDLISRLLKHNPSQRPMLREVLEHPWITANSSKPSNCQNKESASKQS

Inhibition at 1 µM, > 50%:
Cc1ccc(/C=C/c2n[nH]c3cc([C@@H]4C[C@@]45C(=O)Nc4ccccc45)ccc23)c(C)n1 (relative stereo) [Example A158, (1R*,2S*)-2-(3-((E)-2-(2,6-dimethylpyridin-3-yl)vinyl)-1H-indazol-6-yl)spiro[cyclopropane-1,3′-indolin]-2′-one]
CN(C)Cc1ccc(/C=C/c2n[nH]c3cc([C@@H]4C[C@@]45C(=O)N(CC(N)=O)c4ccccc45)ccc23)cc1 (relative stereo) [Example A160, 2-((1R*,2S*)-(E)-2-(3-(4-((dimethylamino)methyl)styryl)-1H-indazol-6-yl)-2′-oxospiro[cyclopropane-1,3′-indoline]-1′-yl)acetamide 2,2,2-trifluoroacetate]

Inhibition at 1 µM, < 50%:
COc1ccc2c(c1)[C@]1(C[C@H]1c1ccc3c(C#Cc4ccc(C=O)cc4)n[nH]c3c1)C(=O)N2 (relative stereo) [Example A137, 4-((6-((1R*,2S*)-5′-methoxy-2′-oxospiro[cyclopropane-1,3′-indoline]-2-yl)-1H-indazol-3-yl)ethynyl)benzaldehyde]
COc1ccc2c(c1)[C@]1(C[C@H]1c1ccc3c(-c4ccc(CN5CCOCC5)cc4)n[nH]c3c1)C(=O)N2 (relative stereo) [Example A139, (1R*,2S*)-5′-methoxy-2-(3-(4-(morpholinomethyl)phenyl)-1H-indazol-6-yl)spiro[cyclopropane-1,3′-indolin]-2′-one 2,2,2-trifluoroacetate]
COc1ccc2c(c1)[C@]1(C[C@H]1c1ccc3c(-c4ccc(CN5CCN(C)CC5)cc4)n[nH]c3c1)C(=O)N2 (relative stereo) [Example A140, (1R*,2S*)-5′-methoxy-2-(3-(4-((4-methylpiperazin-1-yl)methyl)phenyl)-1H-indazol-6-yl)spiro[cyclopropane-1,3′-indolin]-2′-one bis-2,2,2-trifluoroacetate]
CCc1ccc2c(c1)[C@]1(C[C@H]1c1ccc3c(-c4cccc(CN5CCOCC5)c4)n[nH]c3c1)C(=O)N2 (relative stereo) [Example A141, (1R*,2S*)-5′-ethyl-2-(3-(3-(morpholinomethyl)phenyl)-1H-indazol-6-yl)spiro[cyclopropane-1,3′-indolin]-2′-one 2,2,2-trifluoroacetate]
COc1ccc2c(c1)[C@]1(C[C@H]1c1ccc3c(C#Cc4ccc(CN5CCN(C)CC5)cc4)n[nH]c3c1)C(=O)N2 (relative stereo) [Example A145, (1R*,2S*)-5′-methoxy-2-(3-((4-((4-methylpiperazin-1-yl)methyl)phenyl)ethynyl)-1H-indazol-6-yl)spiro[cyclopropane-1,3′-indolin]-2′-one bis(2,2,2-trifluoroacetate)]
CN1CCN(Cc2ccc(-c3n[nH]c4cc([C@@H]5C[C@@]56C(=O)Nc5ccccc56)ccc34)cc2)CC1 (relative stereo) [Example A155, (1R*,2S*)-2-(3-(4-((4-methylpiperazin-1-yl)methyl)phenyl)-1H-indazol-6-yl)spiro[cyclopropane-1,3′-indolin]-2′-one bis-2,2,2-trifluoroacetate]
CN1CCN(C(=O)c2ccc(-c3n[nH]c4cc([C@@H]5C[C@@]56C(=O)Nc5ccccc56)ccc34)cc2)CC1 (relative stereo) [Example A156, (1R*,2S*)-2-(3-(4-(4-methylpiperazine-1-carbonyl)phenyl)-1H-indazol-6-yl)spiro[cyclopropane-1,3′-indolin]-2′-one 2,2,2-trifluoroacetate]
COc1ccc2c(c1)[C@]1(C[C@H]1c1ccc3c(-c4ccc(CCN5CCOCC5)cc4)n[nH]c3c1)C(=O)N2 (relative stereo) [Example A159, (1R*,2S*)-5′-methoxy-2-(3-(4-(2-morpholinoethyl)phenyl)-1H-indazol-6-yl)spiro[cyclopropane-1,3′-indolin]-2′-one 2,2,2-trifluoroacetate]
